Reference: patent publication US5795907A, “Gastin and CCK receptor ligands” (James Black Foundation Limited, priority 1994, dated 1998)
One block for each compound: values may come before it.

What was measured:
CCKB receptor = target: T1, CCKB receptor (Mus musculus, UniProt P56481); experiment: CCKB receptor radioligand binding assay in mouse cortical membranes ([125I]-CCK8S); settings: [125I]-CCK8S 200 pM, 150 min at 21±3°; for Ki: read-out: CCKB pKi (converted)
T1 construct: The cortex was dissected, weighed and homogenised in 40ml ice-cold buffer; tissue Charles River (supplier of the CD1 mice); host or cells: cerebral cortex membranes of male CD1 mice
T1 sequence (P56481 1-453): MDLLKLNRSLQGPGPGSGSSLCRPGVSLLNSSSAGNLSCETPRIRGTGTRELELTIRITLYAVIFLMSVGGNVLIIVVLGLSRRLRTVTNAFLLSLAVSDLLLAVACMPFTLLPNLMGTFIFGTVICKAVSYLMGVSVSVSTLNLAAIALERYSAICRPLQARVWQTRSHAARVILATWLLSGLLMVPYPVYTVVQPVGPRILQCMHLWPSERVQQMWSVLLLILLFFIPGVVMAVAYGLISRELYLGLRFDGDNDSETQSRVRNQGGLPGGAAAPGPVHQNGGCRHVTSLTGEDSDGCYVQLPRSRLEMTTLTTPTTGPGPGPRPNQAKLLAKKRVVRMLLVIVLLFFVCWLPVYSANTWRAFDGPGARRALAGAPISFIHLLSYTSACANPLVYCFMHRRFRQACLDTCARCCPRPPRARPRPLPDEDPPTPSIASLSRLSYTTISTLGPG
Procedure, shortened: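 This was competition binding with tracer [125I]-CCK8S (200 pM solution added), run for 150 min at 21±3° on male CD1 mouse cortex membranes in pH 7.2 HEPES buffer with bacitracin. Filtration then gamma counting gave bound radioactivity. L-365,260 set the non-specific level.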

gastrin = target: T2, gastrin (Rattus norvegicus, UniProt P30553); experiment: gastrin antagonist activity in an immature rat stomach assay (pentagastrin-stimulated acid secretion); settings: cumulative pentagastrin dose-response curves after 60 min with drug; for Kb: read-out: Gastrin pKB (converted)
T2 construct: The stomach was lowered into a jacketed organ bath containing 40 ml of buffered solution; from tissue; host or cells: isolated perfused whole stomach of immature rats (ca. 21 days old)
T2 sequence (P30553 1-452): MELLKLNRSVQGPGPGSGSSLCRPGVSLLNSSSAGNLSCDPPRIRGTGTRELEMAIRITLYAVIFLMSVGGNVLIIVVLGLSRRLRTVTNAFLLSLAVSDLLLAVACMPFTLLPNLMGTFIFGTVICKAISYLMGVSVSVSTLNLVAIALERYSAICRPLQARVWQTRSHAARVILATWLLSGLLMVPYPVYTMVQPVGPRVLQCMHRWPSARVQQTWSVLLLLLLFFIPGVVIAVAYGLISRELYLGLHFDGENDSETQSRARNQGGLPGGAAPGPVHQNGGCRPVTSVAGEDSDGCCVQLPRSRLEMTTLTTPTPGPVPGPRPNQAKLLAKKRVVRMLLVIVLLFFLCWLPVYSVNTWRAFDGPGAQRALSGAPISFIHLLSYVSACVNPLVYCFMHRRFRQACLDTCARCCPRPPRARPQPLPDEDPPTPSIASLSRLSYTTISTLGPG
Procedure, shortened: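 Isolated lumen-perfused immature rat stomach (33-50 g, ca. 21 days) in 37° organ bath with 3×10^-8 M 5-methylfurmethide; acid secretion read by pH electrode in perfusate. Compound added to serosal bath after 120 min stabilisation; cumulative pentagastrin dose-response curves begun 60 min later and analysed by the Black et al. method.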

CCKA = target: T3, CCKA (Cavia porcellus, UniProt Q63931); experiment: CCKA radioligand binding assay in guinea-pig pancreas membranes ([125I]-CCK8(S)); settings: PD134,308 present, 150 minutes at 21±3°; for Ki: read-out: CCKA pKi (converted)
T3 construct: The pancreatata were homogenised in 40 ml ice-cold HEPES buffer using a polytron; from tissue; host or cells: pancreas membranes of male Dunkin Hartley guinea-pigs
T3 sequence (Q63931 1-430): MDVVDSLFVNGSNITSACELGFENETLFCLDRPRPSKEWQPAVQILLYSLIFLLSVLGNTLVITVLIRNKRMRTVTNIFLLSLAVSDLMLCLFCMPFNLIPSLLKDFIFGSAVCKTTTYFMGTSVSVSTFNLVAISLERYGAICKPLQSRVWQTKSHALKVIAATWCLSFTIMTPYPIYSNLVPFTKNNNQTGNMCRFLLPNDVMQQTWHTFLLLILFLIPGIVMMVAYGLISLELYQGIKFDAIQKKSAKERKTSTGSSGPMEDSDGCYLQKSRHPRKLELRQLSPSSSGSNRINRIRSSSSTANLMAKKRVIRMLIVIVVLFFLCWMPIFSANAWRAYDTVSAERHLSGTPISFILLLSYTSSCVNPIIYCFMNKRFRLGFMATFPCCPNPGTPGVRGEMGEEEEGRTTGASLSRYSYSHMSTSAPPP
Procedure, shortened: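 Competition for [125I]-CCK8(S) (added as […] solution) ran for 150 min at 21±3° in HEPES pH 7.2. Membranes came from male guinea-pig pancreas at 1 mg/ml original wet weight, with 0.375 μM PD134,308 in the suspension. Filter-bound counts were gamma-counted; 100 nM L-364,718 (added solution) defined non-specific binding.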

Ki (CCKB receptor): 0.631 µM
Kb (gastrin): 0.1 µM
Ki (CCKA): 3.16 µM
SMILES: C[C@H](NC(=O)c1cc2[nH]ccc2cc1C(=O)NCC12CC3CC(CC(C3)C1)C2)C(=O)Nc1cc(C(=O)O)cc(C(=O)O)c1 [Example 48, 6-(1S-(3,5-dicarboxyphenylaminocarbonyl)-ethylaminocarbonyl)-5-(1-adamantanemethylaminocarbonyl)-indole]

CCKB pKi (CCKB receptor): 7.8
Kb (gastrin): 0.00794 µM
Ki (CCKA): 2.51 µM
SMILES: O=C(O)c1cc(NC(=O)[C@H](Cc2ccc(O)cc2)NC(=O)c2cc3[nH]cnc3cc2C(=O)NCC23CC4CC(CC(C4)C2)C3)cc(C(=O)O)c1 [Example 60, 5-(1S-(3,5-dicarboxyphenylaminocarbonyl)-2-(4-hydroxyphenyl)ethylaminocarbonyl)-6-(1-adamantanemethyaminocarbonyl)-benzimidazole]

Ki (CCKB receptor): 0.0158 µM
Kb (gastrin): 0.00631 µM
Ki (CCKA): 3.98 µM
SMILES: O=C(O)c1cc(NC(=O)[C@H](Cc2ccccc2)NC(=O)c2cc3[nH]cnc3cc2C(=O)NCC2CCCCCC2)cc(C(=O)O)c1 [Example 62, 5-(1S-(3,5-dicarboxyphenylaminocarbonyl)-2-phenylethylaminocarbonyl)-6-(1-cycloheptanemethylaminocarbonyl)-benzimidazole]

Ki (CCKB receptor): 0.501 µM
Kb (gastrin): 0.158 µM
Ki (CCKA): 2 µM
SMILES: O=C(NCC12CC3CC(CC(C3)C1)C2)c1cc2nc[nH]c2cc1C(=O)N[C@@H](Cc1ccccc1)C(=O)NCc1ccc(F)cc1 [Example 67, 5-(1S-(4-fluorophenylmethylaminocarbonyl)-2-phenylethylaminocarbonyl)-6-(1-adamantanemethylaminocarbonyl)-benzimidazole]

Ki (CCKB receptor): 0.316 µM
Kb (gastrin): 0.0794 µM
Ki (CCKA): 7.94 µM
SMILES: O=C(O)c1cc(NC(=O)[C@H](Cc2c[nH]cn2)NC(=O)c2cc3[nH]cnc3cc2C(=O)NCC23CC4CC(CC(C4)C2)C3)cc(C(=O)O)c1 [Example 69, 5-(1S-(3,5-dicarboxyphenylaminocarbonyl)-2-(2,4-imidazolyl)ethylaminocarbonyl)-6-(1-adamantanemethylaminocarbonyl)-benzimidazole]

CCKB pKi (CCKB receptor): 7.8
Gastrin pKB (gastrin): 7.7
CCKA pKi (CCKA): 6.1
SMILES: O=C(O)c1cc(NC(=O)[C@H](Cc2ccccc2)NC(=O)c2cc3[nH]cnc3cc2C(=O)NCC23CC4CC(CC(C4)C2)C3)ccc1F [Example 75, 5-(1S-(3-carboxy-4-fluoro-phenylaminocarbonyl)-2-phenylethylaminocarbonyl)-6-(1-adamantanemethylaminocarbonyl)-benzimidazole]

Second part, the compound before the results:

SMILES: C[C@H](NC(=O)c1cc2cc[nH]c2cc1C(=O)NCC12CC3CC(CC(C3)C1)C2)C(=O)Nc1cc(C(=O)O)cc(C(=O)O)c1 [Example 47, 5-(1S-(3,5-dicarboxyphenylaminocarbonyl)-ethylaminocarbonyl)-6-(1-adamantanemethylaminocarbonyl)-indole]
Ki (CCKB receptor): 0.158 µM
Kb (gastrin): 0.00501 µM
Ki (CCKA): 6.31 µM

SMILES: CC(=O)Oc1cc(OC(C)=O)c2cc(C(=O)N[C@@H](Cc3ccccc3)C(=O)Nc3cc(C(=O)O)cc(C(=O)O)c3)c(C(=O)NCC34CC5CC(CC(C5)C3)C4)cc2c1 [Example 53, 3-(1S-(3,5-dicarboxyphenylaminocarbonyl)-2-phenylethylaminocarbonyl)-2-(1-adamantanemethylaminocarbonyl)-5,7-diacetoxy-naphthalene]
CCKB pKi (CCKB receptor): 8.1
Gastrin pKB (gastrin): 7.9
CCKA pKi (CCKA): 6.1

SMILES: CC(=O)Oc1cc(OC(C)=O)c2cc(C(=O)NCC34CC5CC(CC(C5)C3)C4)c(C(=O)N[C@@H](Cc3ccccc3)C(=O)Nc3cc(C(=O)O)cc(C(=O)O)c3)cc2c1 [Example 54, 2-(1S-(3,5-dicarboxyphenylaminocarbonyl)-2-phenylethylaminocarbonyl)-3-(1-adamantanemethylaminocarbonyl)-5,7-diacetoxy-naphthalene]
CCKB pKi (CCKB receptor): 8.1
Gastrin pKB (gastrin): 8.1
CCKA pKi (CCKA): 5.9

SMILES: O=C(O)c1cc(NC(=O)[C@H](Cc2ccccc2)NC(=O)C2Cc3ccccc3CN2C(=O)NCC23CC4CC(CC(C4)C2)C3)cc(C(=O)O)c1 (stereo partly drawn) [Example 57, 3-(1S-(3,5-dicarboxyphenylaminocarbonyl)-2-phenylethylaminocarbonyl)-2-(1-adamantanemethylaminocarbonyl)-1,2,3,4-tetrahydroisoquinoline]
Ki (CCKB receptor): 0.02 µM
Kb (gastrin): 0.02 µM
Ki (CCKA): 2 µM

SMILES: O=C(O)c1cc(NC(=O)[C@@H](Cc2ccccc2)NC(=O)c2cc3[nH]cnc3cc2C(=O)NCC23CC4CC(CC(C4)C2)C3)cc(C(=O)O)c1 [Example 61, 5-(1R-(3,5-dicarboxyphenylaminocarbonyl)-2-phenylethylaminocarbonyl)-6-(1-adamantanemethylaminocarbonyl)-benzimidazole]
Ki (CCKB receptor): 0.00398 µM
Kb (gastrin): 0.002 µM
Ki (CCKA): 6.31 µM

SMILES: O=C(O)c1cc(NC(=O)[C@H](Cc2ccccc2F)NC(=O)c2cc3[nH]cnc3cc2C(=O)NCC2CCCCCC2)cc(C(=O)O)c1 [Example 70, 5-(1S-(3,5-dicarboxyphenylaminocarbonyl)-2-(2-fluorophenyl)ethylaminocarbonyl)-6-(cycloheptanemethylaminocarbonyl)-benzimidazole]
Ki (CCKB receptor): 0.00794 µM
Kb (gastrin): 0.0158 µM
Ki (CCKA): 7.94 µM

SMILES: C[C@H](NC(=O)c1cc2[nH]cnc2cc1C(=O)NCC12CC3CC(CC(C3)C1)C2)C(=O)Nc1cc(C(=O)O)cc(C(=O)O)c1 [Example 71, 5-(1S-(3,5-dicarboxyphenylaminocarbonyl)-ethylaminocarbonyl)-6-(1-adamantanemethylaminocarbonyl)-benzimidazole]
Ki (CCKB receptor): 0.398 µM
Kb (gastrin): 0.1 µM
Ki (CCKA): 5.01 µM

SMILES: C[C@H](NC(=O)c1cc2[nH]cnc2cc1C(=O)NCC1CCCCCC1)C(=O)Nc1cc(C(=O)O)cc(C(=O)O)c1 [Example 72, 5-(1S-(3,5-dicarboxyphenylaminocarbonyl)-ethylaminocarbonyl)-6-(cycloheptanemethylaminocarbonyl)-benzimidazole]
CCKB pKi (CCKB receptor): 6.0
Gastrin pKB (gastrin): 6.3
CCKA pKi (CCKA): 5.6

SMILES: CN(C(=O)[C@H](Cc1ccccc1)NC(=O)c1cc2[nH]cnc2cc1C(=O)NCC12CC3CC(CC(C3)C1)C2)c1cc(C(=O)O)cc(C(=O)O)c1 [Example 73, 5-(1S-(3,5-dicarboxyphenyl-N-(methyl)amino-carbonyl)-2-phenylethylaminocarbonyl)-6-(1-adamantane-methylaminocarbonyl)-benzimidazole]
CCKB pKi (CCKB receptor): 6.3
Kb (gastrin): 0.0631 µM
Ki (CCKA): 6.31 µM

SMILES: Cn1cnc2cc(C(=O)N[C@@H](Cc3ccccc3)C(=O)Nc3cc(C(=O)O)cc(C(=O)O)c3)c(C(=O)NCC34CC5CC(CC(C5)C3)C4)cc21 [Example 74, N-methyl-5-(1S-(3,5-dicarboxyphenylaminocarbonyl)-2-phenylethylaminocarbonyl)-6-(1-adamantanemethylaminocarbonyl)-benzimidazole]
CCKB pKi (CCKB receptor): 7.6
Gastrin pKB (gastrin): 9.0
CCKA pKi (CCKA): 5.3
